The numbers were not newly measured in publication PMC10646941 (Chemical Science, 2023), which cites them from elsewhere.

This data set deals with SARS-CoV-2 3C-Like Protease.

For the molecule `CC(C)(C)[C@H](NC(=O)C(F)(F)F)C(=O)N1C[C@H]2[C@@H]([C@H]1C(=O)N[C@H](C#N)C[C@@H]1CCNC1=O)C2(C)C` [nirmatrelvir], the kinact/Ki is 55000 M⁻¹ s⁻¹.
